Read-outs that look alike come from different tables or passages of the source.
Legend:
[1] = test system: Methanococcus maripaludis; test: Inhibition of methane production by Methanococcus maripaludis culture (pressure drop after 24 h); type: cell-based; details: for Inhibition of methane production by bromoform on its own: bromoform alone at 0.12 μM (very low concentration); for Fold increase of Compound X combined with bromoform as compared to Compound X alone: bromoform 0.12 μM
Experimental: For this experiment, bromoform was prepped at 100 mM by adding 8.75 μl bromoform to 991 μl DMSO. This was diluted 10× to generate a 10 mM solution and further diluted to generate 0.12 mM stock solutions. Compound X stock solutions were prepared in DMSO (except for tannic acid, which was diluted in deionized water), to achieve the desired stock solutions required for testing. The experiment was set up by adding 5 ml of M141 medium (https://www.dsmz.de/microorganisms/medium/pdf/DSMZ_Medium141.pdf) to a screw cap Hungate tube followed by the addition of 5 μl Compound X and/or 5 μl bromoform or 5/10 μl DMSO as follows: • Tube 1: DMSO (10 μl) • Tube 2: Bromoform (5 μl, 0.120 mM) (120 nM final)+5 μl DMSO • Tube 3: Compound X (5 μl stock solution)+5 μl DMSO • Tube 4: Bromoform (5 μl 0.120 mM) (120 nM final)+Compound X (5 μl stock solution)
The concentration of Bromoform was fixed at 0.12 μM.
After the addition of the test substances, 500 μl of an overnight M. maripaludis culture was added to each reaction tube. Each tube was gassed with 80% H2/20% CO2 to 240 kPa and incubated at 37° C. for 24 h.
After the 24 h incubation the pressure inside the tube was measured using a manometer. Given that 5 moles of H2/CO2 are consumed to generate 1 mole of CH4 the drop in pressure observed was used to calculate the amount of methane by the control and test reactions from which a percent inhibition was calculated.
Table 1 below summarises the range of concentrations and the fold increase in inhibition of Compound X when tested with bromoform relative to the level of inhibition for Compound X when tested alone.

rumen fluid = test: In vitro rumen fluid fermentation assay (Gas Test), methane by gas chromatography; type: cell-based, cows; details: for Synergistic effect in methane inhibition: combined with iodoform
Experimental: Various samples of single species, extracts, two-species combinations, and three-species combinations were assessed for their potential to inhibit methane production. This evaluation was carried out using in vitro fermentation assays known as Gas Tests. In each Gas Test, 250 mg of total meal ration (TMR) comprising 30% grass, 30% corn, and 40% complete feed was introduced into 100 ml serum vials as the substrate for the fermentation process. Rumen fluid, obtained from fistulated cows at the University of Reading, was mixed with degassed reaction buffer (1.6 L) and supplemented with Na2S (82 ml). Subsequently, 30 ml of the rumen fluid/buffer mixture was added to each serum vial.
The test substances were dissolved in 100% ethanol, and 100 μl of each test substance was added to the serum vials containing the rumen fluid/buffer mixture. All test substances and controls were examined in triplicate for each experiment. Once the test substances and controls were added, the vials were sealed with butyl rubber stoppers and aluminium crimps, then incubated at 39° C. for 24 hours. Following incubation, gas samples were collected from both the control and test vials, and methane levels were determined using gas chromatography.
For each test compound, the “percentage inhibition of methane produced” was calculated using the following formula: […]
The test substances underwent evaluation in three independent Gas Tests, and an average percentage inhibition was calculated for each substance.
Synergy between substances was determined using the Bliss Independence Model using the following equation: […]
Where IAB is the predicted percentage methane inhibition of both substances together and IA and IB are the observed percentage methane inhibitions of the individual substances. The predicted percentage methane inhibition of both substances (IAB) and the observed percent methane inhibition of both substances (Iob) are used to calculate the Combination index (Ci) as follows:
If the Ci<1 then the two substances are synergistic.
Synergy between substances was determined using the following calculation:
Where IABC is the predicted percentage methane inhibition of the three substances together and IA, IB and IC are the observed percentage methane inhibitions of the individual substances.
The predicted percentage methane inhibition of the three substances (IABC) and the observed percent methane inhibition of the combination of the three substances (Iob) are used to calculate the Combination index (Ci) as follows: […]

[2] = Bos taurus, 24 h, read-out: Average of observed methane inhibition (%)
[3] = Bos taurus, sole compound, 25 μM, 24 h, three Gas Tests, read-out: Average of observed methane inhibition (%)

BrC(Br)Br [Bromoform, bromoform]
Inhibition of methane production by bromoform on its own [1]: too low to inhibit methanogen on its own | Inhibition of methane production by bromoform on its own ([1]; listed as bromoform): does not reduce or inhibit methane production | inhibition at 0.1 µM (rumen fluid; [2]): 1.3% | inhibition at 1 µM (rumen fluid; [2]): 92.4%

C=CCSSCC=C [Diallyl disulfide, diallyl disulfide]
Methane inhibition in combination with Bromoform (%) ([1]; Compound X 15.6 μM-250 μM (range tested) + bromoform 0.12 μM, 24 h): 88.8% | Fold increase of Compound X combined with bromoform as compared to Compound X alone ([1]; Compound X 15.6 μM-250 μM (range tested)): 88.8 fold | inhibition at 15.6 µM ([1]; Methanococcus maripaludis, 24 h, read-out: Methane inhibition of Compound X as a sole compound (%)): 1% | inhibition at 25 µM (rumen fluid; [2]): 5%

C=CCSSSCC=C [Diallyl trisulfide, diallyl trisulfide]
Methane inhibition in combination with Bromoform (%) ([1]; Compound X 125 μM + bromoform 0.12 μM, 24 h): 27.1% | Fold increase of Compound X combined with bromoform as compared to Compound X alone ([1]; Compound X 125 μM): 27.1 fold | inhibition at 125 µM ([1]; Methanococcus maripaludis, Compound X 125 μM alone, 24 h, read-out: Methane inhibition of Compound X as a sole compound (%)): 1% | inhibition at 25 µM (rumen fluid; [3]): 11% | Synergistic effect in methane inhibition (rumen fluid): synergistic effects were observed

BrCBr [Dibromomethane, dibromomethane]
inhibition at 0.5 µM (rumen fluid; [2]): 14.5% | inhibition at 10 µM (rumen fluid; [2]): 99% | Synergistic effect in methane inhibition (rumen fluid): synergistic effects were observed

CCCSSCCC [Dipropyl disulfide, dipropyl disulfide]
Methane inhibition in combination with Bromoform (%) ([1]; Compound X 1 mM + bromoform 0.12 μM, 24 h): 43.5% | Fold increase of Compound X combined with bromoform as compared to Compound X alone ([1]; Compound X 1 mM): 1.57 fold | inhibition at 1000 µM ([1]; Methanococcus maripaludis, Compound X 1 mM alone, 24 h, read-out: Methane inhibition of Compound X as a sole compound (%)): 27.7% | inhibition at 30 µM (rumen fluid; Bos taurus, sole compound, 30 μM, 24 h, three Gas Tests, read-out: Average of observed methane inhibition (%)): 3% | Synergistic effect in methane inhibition (rumen fluid): synergistic effects were observed

IC(I)I [Iodoform, iodoform]
inhibition at 2 µM (rumen fluid; Bos taurus, sole compound, 2 μM, 24 h, three Gas Tests, read-out: Average of observed methane inhibition (%)): 40.8% | inhibition at 10 µM (rumen fluid; Bos taurus, sole compound, 10 μM, 24 h, three Gas Tests, read-out: Average of observed methane inhibition (%)): 98.3%

O=C1C[C@@H](c2ccc(O)cc2)Oc2cc(O)cc(O)c21 [Naringenin]
Methane inhibition in combination with Bromoform (%) ([1]; Compound X 100 μM + bromoform 0.12 μM, 24 h): 90.3% | Fold increase of Compound X combined with bromoform as compared to Compound X alone ([1]; Compound X 100 μM): 90.3 fold | inhibition at 100 µM ([1]; Methanococcus maripaludis, Compound X 100 μM alone, 24 h, read-out: Methane inhibition of Compound X as a sole compound (%)): 1% | inhibition at 100 µM (rumen fluid; Bos taurus, sole compound, 100 μM, 24 h, three Gas Tests, read-out: Average of observed methane inhibition (%)): 10% | Synergistic effect in methane inhibition (rumen fluid): synergistic effects were observed

CCCCCCC(C=O)=Cc1ccccc1 [α-Hexylcinnamaldehyde]
Methane inhibition in combination with Bromoform (%) ([1]; Compound X 31.25 μM + bromoform 0.12 μM, 24 h): 97.2% | Fold increase of Compound X combined with bromoform as compared to Compound X alone ([1]; Compound X 31.25 μM): 97.2 fold | inhibition at 31.25 µM ([1]; Methanococcus maripaludis, Compound X 31.25 μM alone, 24 h, read-out: Methane inhibition of Compound X as a sole compound (%)): 1% | inhibition at 25 µM (rumen fluid; [3]): 8% | Synergistic effect in methane inhibition (rumen fluid): synergistic effects were observed
